Read-outs that look alike come from different tables or passages of the source.
How the values were obtained:
[1] = tested on: antibody core fucosylation; assay: Inhibition of antibody core fucosylation by fucose analogs; assay type: cell-based
From the text: Methods of determining whether a fucose analog is capable of having an effect on antibody core fucosylation is provided in WO 2012/019165.

[2] = tested on: NF-κB phospho-p65; assay: Western blot of NF-κB phospho-p65 in liver nuclear extracts of sickle cell mice; assay type: in vivo, NY1DD sickle cell mice; conditions: heme-treated mice
Experimental: NY1DD sickle cell mice were given plain water or 20 or 100 mM 2-fluorofucose in their drinking water ad libitum for 7 days. The treatment and control group had four mice per treatment group. On day 7, the mice were sacrificed with CO2. An EDTA blood sample was collected from the heart and the liver was removed and frozen in liquid nitrogen. Total white blood cell counts and differentials were performed by manual counting using a hemocytometer and Wright-stained blood smears, respectively. Nuclear extracts were prepared from nuclei isolated from liver homogenates. Western blots of the nuclear extracts were immunostained with antibodies to NF-κB phospho-p65 a marker of NF-κB activation.

[3] = Table 2, 50 μM analog, read-out: Inhibition at 50 μM
[4] = Table 1, 50 μM analog, read-out: Inhibition at 50 μM

Molecule: 2-deoxy-2-fluorofucose diacetate
- inhibition at 50 µM ([1]; Table 2, 50 μM analog): >80%
- Inhibition at 1 mM ([1]; Table 2, 1 mM analog): >80%

Molecule: 2-deoxy-2-fluorofucose peracetate
- inhibition at 50 µM ([1]; Table 2, 50 μM analog): >80%
- Inhibition at 1 mM ([1]; Table 2, 1 mM analog): >80%

Molecule: 5-Benzyloxy fucose peracetate
- inhibition at 50 µM ([1]; Table 2, 50 μM analog): 0%
- Inhibition at 1 mM ([1]; Table 2, 1 mM analog): 75%

Molecule: CC(=O)OC1C(C)OC(F)C(F)C1OC(C)=O (stereo not shown) [1,2-difluoro-1,2-didexoy fucose peracetate]
- inhibition at 50 µM ([1]; Table 2, 50 μM analog): >80%
- Inhibition at 1 mM ([1]; Table 2, 1 mM analog): >80%

Molecule: C#C[C@H](OC(C)=O)[C@H]1OC(OC)[C@@H](OC(C)=O)[C@@H]1OC(C)=O (stereo partly shown) [1-methyl-2,3,4-triacetyl alkynyl fucose]
- inhibition at 50 µM ([1]; Table 1, 50 μM analog): 68%
- Inhibition at 1 mM ([1]; Table 1, 1 mM analog): >80%

Molecule: CC(=O)OC1O[C@@H](C)[C@@H](OC(C)=O)[C@@H](OC(C)=O)C1(F)F (stereo partly drawn) [2-deoxy-2,2-difluorofucopyranose triacetate (beta)]
- inhibition at 50 µM ([1]; Table 2, 50 μM analog): 0%
- Inhibition at 1 mM ([1]; Table 2, 1 mM analog): 75%

Molecule: CC(=O)OC1O[C@@H](C)[C@@H](OC(C)=O)[C@@H](OC(C)=O)C1(F)F (stereo partly shown) [2-deoxy-2,2-difluorofucopyranose triacetate]
- inhibition at 50 µM [1, 3]: 0%
- inhibition at 1000 µM ([1]; Table 2, 1 mM analog): 64%

Molecule: CC(=O)OC(C#N)[C@H]1OC(OC(C)=O)[C@@H](OC(C)=O)[C@@H]1OC(C)=O (stereo partly shown) [5-cyanoarabinofuranose tetraacetate]
- inhibition at 50 µM [1, 4]: 5 to 10%

Molecule: CC(=O)OC1OC(C#N)[C@@H](OC(C)=O)[C@@H](OC(C)=O)[C@@H]1OC(C)=O (stereo partly shown) [5-cyanoarabinopyranose tetraacetate]
- inhibition at 50 µM [1, 4]: 20%

Molecule: CC(=O)OC1O[C@@H]([C@]2(C)CO2)[C@@H](OC(C)=O)[C@@H](OC(C)=O)[C@@H]1OC(C)=O (stereo partly drawn) [5-methyloxiran-arabinose tetraacetate, (3S,4R,5S,6R)-6-((S)-2-methyloxiran-2-yl)-tetrahydro-2H-pyran-2,3,4,5-tetrayl tetraacetate]
- inhibition at 50 µM [1, 4]: ~0%
- inhibition at 1000 µM ([1]; Table 1, 1 mM analog): 35 to 40%

Molecule: CC#CC(OC(C)=O)[C@@H](OC(C)=O)[C@@H](OC(C)=O)[C@@H](C=O)OC(C)=O (stereo partly shown) [5-propynyl fucose tetraacetate, 5-propynylarabinose tetraacetate]
- inhibition at 50 µM [1, 4]: 50%
- inhibition at 1000 µM ([1]; Table 1, 1 mM analog): > 80%

Molecule: C=CC1OC(OC(C)=O)C(OC(C)=O)C(OC(C)=O)C1OC(C)=O (stereo not shown) [5-vinyl fucose tetraacetate, 5-ethylenylarabinose tetraacetate]
- inhibition at 50 µM ([1]; Table 1, 50 μM analog): ~0%
- Inhibition at 1 mM ([1]; Table 1, 1 mM analog): ~4%

Molecule: CC(=O)O[C@H]([C@H](OC(C)=O)[C@@H](OC(C)=O)C(F)F)[C@@H](C=O)OC(C)=O [6,6-difluorofucose tetraacetate]
- inhibition at 50 µM [1, 3]: > 80%
- inhibition at 1000 µM ([1]; Table 2, 1 mM analog): > 80%

Molecule: CC(=O)O[C@H]([C@H](OC(C)=O)[C@H](CBr)OC(C)=O)[C@@H](C=O)OC(C)=O [6-bromo-fucose tetraacetate, 6-bromofucose tetraacetate]
- inhibition at 50 µM [1, 4]: 50%
- inhibition at 1000 µM ([1]; Table 1, 1 mM analog): 80%

Molecule: CC(=O)O[C@H]([C@H](OC(C)=O)[C@H](CCl)OC(C)=O)[C@@H](C=O)OC(C)=O [6-chloro-fucose tetraacetate, 6-chlorofucose tetraacetate]
- inhibition at 50 µM [1, 4]: 20%
- inhibition at 1000 µM ([1]; Table 1, 1 mM analog): 20 to 30%

Molecule: CC(=O)O[C@H]([C@H](OC(C)=O)[C@H](CC#N)OC(C)=O)[C@@H](C=O)OC(C)=O [6-cyano fucose tetraacetate, 6-cyanofucose tetraacetate]
- inhibition at 50 µM [1, 4]: 30%
- inhibition at 1000 µM ([1]; Table 1, 1 mM analog): > 80%

Molecule: CC(=O)O[C@H]([C@H](OC(C)=O)[C@H](CI)OC(C)=O)[C@@H](C=O)OC(C)=O [6-iodo-fucose tetraacetate, 6-iodofucose tetraacetate]
- inhibition at 50 µM [1, 4]: 3%
- inhibition at 1000 µM ([1]; Table 1, 1 mM analog): 30%

Molecule: CC(=O)OC1CC(OC(C)=O)C(OC(C)=O)C(C)O1 (stereo not shown) [6-methyl-tetrahydro-2H-pyran-2,4,5-triyl triacetate]
- inhibition at 50 µM [1, 3]: 0%
- inhibition at 1000 µM ([1]; Table 2, 1 mM analog): 36%

Molecule: C#CC1OC(OC(=O)C(C)(C)C)C(OC(=O)C(C)(C)C)C(OC(=O)C(C)(C)C)C1O (stereo not shown) [Alkynyl fucose 1,2,3-(trimethylacetate), 5-ethynylarabinose 1,2,3-(trimethylacetate)]
- inhibition at 50 µM ([1]; Table 1, 50 μM analog): ~0%

Molecule: C#CC1OC(OC(=O)C(C)(C)C)C(O)C(OC(=O)C(C)(C)C)C1O (stereo not shown) [Alkynyl fucose di(trimethylacetate), 5-ethynylarabinose 1,3-(trimethylacetate)]
- inhibition at 50 µM ([1]; Table 1, 50 μM analog): >80%

Molecule: C#CC(OC(C)=O)[C@@H](OC(C)=O)[C@@H](OC(C)=O)[C@@H](C=O)OC(C)=O (stereo partly shown) [Alkynyl fucose peracetate, 5-ethynylarabinose tetraacetate]
- inhibition at 50 µM [1, 4]: > 80%
- inhibition at 1000 µM ([1]; Table 1, 1 mM analog): > 80%

Molecule: C#C[C@@H]1OC(OC(=O)C(C)C)[C@@H](OC(=O)C(C)C)[C@H](OC(=O)C(C)C)[C@@H]1OC(=O)C(C)C (stereo partly shown) [Alkynyl fucose perisobutanoate]
- inhibition at 50 µM ([1]; Table 1, 50 μM analog): >80%
- Inhibition at 1 mM ([1]; Table 1, 1 mM analog): >80%

Molecule: C#C[C@H]1OC(OC(=O)c2ccncc2)[C@@H](OC(=O)c2ccncc2)[C@H](OC(=O)c2ccncc2)[C@@H]1OC(=O)c1ccncc1 (stereo partly shown) [Alkynyl fucose perisonicotinate]
- inhibition at 50 µM ([1]; Table 1, 50 μM analog): >80%
- Inhibition at 1 mM ([1]; Table 1, 1 mM analog): >80%

Molecule: C#CC1OC(OC(=O)c2cccnc2)C(OC(=O)c2cccnc2)C(OC(=O)c2cccnc2)C1OC(=O)c1cccnc1 (stereo not shown) [Alkynyl fucose pernicotinate]
- inhibition at 50 µM ([1]; Table 1, 50 μM analog): >80%
- Inhibition at 1 mM ([1]; Table 1, 1 mM analog): >80%

Molecule: C#CC(OC(=O)CCCCC)[C@@H](OC(=O)CCCCC)[C@@H](OC(=O)CCCCC)[C@@H](C=O)OC(=O)CCCCC (stereo partly shown) [Alkynyl fucose tetra-n-hexanoate, 5-ethynylarabinose tetrahexanoate]
- inhibition at 50 µM [1, 4]: > 80%
- inhibition at 1000 µM ([1]; Table 1, 1 mM analog): > 80%

Molecule: C#C[C@@H]1OC(OC(=O)CC)[C@@H](OC(=O)CC)[C@H](OC(=O)CC)[C@@H]1OC(=O)CC (stereo partly shown) [Alkynyl fucose tetrapropanonate, 5-ethynylarabinose tetrapropropanoate]
- inhibition at 50 µM ([1]; Table 1, 50 μM analog): >80%
- Inhibition at 1 mM ([1]; Table 1, 1 mM analog): >80%

Molecule: C#CC(O)[C@@H](O)[C@@H](O)[C@H](O)C=O (stereo partly shown) [Alkynyl fucose, 5-ethynylarabinose]
- inhibition at 50 µM [1, 4]: > 80%

Molecule: C#CC[C@@H]1OC(OC(C)=O)[C@@H](OC(C)=O)[C@H](OC(C)=O)[C@@H]1OC(C)=O (stereo partly drawn) [propargyl fucose tetraacetate, (3S,4R,5R,6S)-6-(prop-2-ynyl)-tetrahydro-2H-pyran-2,3,4,5-tetrayl tetraacetate]
- inhibition at 50 µM [1, 4]: ~10%
- inhibition at 1000 µM ([1]; Table 1, 1 mM analog): 10 to 20%

Molecule: hemin [heme, reference compound]
- Nuclear NF-κB phospho-p65 in liver [2]: markedly decreased

Reference: patent US10350228B2, “Treatment of sickle cell disease and inflammatory conditions” (Seattle Genetics, Inc., priority 2012, dated 2019)
